Measurements reported in the NIST ThermoML archive (doi:10.1016/j.jct.2003.11.008).

Tests used:
[1] = xn = mol fraction of the nth substance listed; conditions: 318.15 K, 101.3 kPa, Liquid
[2] = excess molar enthalpy (molar enthalpy of mixing); xn = mol fraction of the nth substance listed; conditions: 318.15 K, 101.3 kPa, Liquid

CCCCCCCCCCCCCCC [pentadecane] + CCOC(C)=O
Conditions	excess molar enthalpy [kcal/mol]	excess molar volume [m3/mol]
[1], x2 = 0.0932	–	4.44e-07
[1], x2 = 0.1272	–	5.87e-07
[1], x2 = 0.2314	–	9.83e-07
[1], x2 = 0.3237	–	1.237e-06
[1], x2 = 0.4048	–	1.412e-06
[1], x2 = 0.465	–	1.483e-06
[1], x2 = 0.5427	–	1.54e-06
[1], x2 = 0.5987	–	1.536e-06
[1], x2 = 0.6373	–	1.512e-06
[1], x2 = 0.6957	–	1.432e-06
[1], x2 = 0.7643	–	1.293e-06
[1], x2 = 0.8273	–	1.104e-06
[1], x2 = 0.8926	–	8.05e-07
[1], x2 = 0.9375	–	5.48e-07
[1], x2 = 0.9714	–	2.73e-07
[2], x2 = 0.0901	0.134	–
[2], x2 = 0.1777	0.244	–
[2], x2 = 0.2582	0.339	–
[2], x2 = 0.3339	0.41	–
[2], x2 = 0.397	0.456	–
[2], x2 = 0.4609	0.489	–
[2], x2 = 0.5093	0.505	–
[2], x2 = 0.5557	0.511	–
[2], x2 = 0.6033	0.509	–
[2], x2 = 0.6563	0.495	–
[2], x2 = 0.6935	0.48	–
[2], x2 = 0.7292	0.457	–
[2], x2 = 0.7706	0.424	–
[2], x2 = 0.813	0.384	–
[2], x2 = 0.8538	0.332	–
[2], x2 = 0.8958	0.273	–
[2], x2 = 0.9283	0.21	–
[2], x2 = 0.9676	0.115	–

CCCCOC(C)=O [butyl ethanoate] + CCCCCCC
Conditions	excess molar enthalpy [kcal/mol]	excess molar volume [m3/mol]
[1], x1 = 0.0555	–	1.92e-07
[1], x1 = 0.1132	–	3.36e-07
[1], x1 = 0.1672	–	4.34e-07
[1], x1 = 0.22	–	5.12e-07
[1], x1 = 0.2722	–	5.77e-07
[1], x1 = 0.3229	–	6.09e-07
[1], x1 = 0.3726	–	6.31e-07
[1], x1 = 0.4298	–	6.52e-07
[1], x1 = 0.4755	–	6.52e-07
[1], x1 = 0.5265	–	6.24e-07
[1], x1 = 0.5779	–	5.89e-07
[1], x1 = 0.6271	–	5.55e-07
[1], x1 = 0.6607	–	5.13e-07
[1], x1 = 0.7709	–	3.86e-07
[1], x1 = 0.8611	–	2.64e-07
[1], x1 = 0.9342	–	1.22e-07
[2], x1 = 0.0596	0.0656	–
[2], x1 = 0.1274	0.12	–
[2], x1 = 0.1982	0.165	–
[2], x1 = 0.2667	0.196	–
[2], x1 = 0.3335	0.218	–
[2], x1 = 0.3922	0.23	–
[2], x1 = 0.4492	0.235	–
[2], x1 = 0.5003	0.236	–
[2], x1 = 0.5104	0.235	–
[2], x1 = 0.5381	0.234	–
[2], x1 = 0.5567	0.232	–
[2], x1 = 0.6057	0.224	–
[2], x1 = 0.6593	0.211	–
[2], x1 = 0.7144	0.19	–
[2], x1 = 0.7729	0.161	–
[2], x1 = 0.8331	0.126	–
[2], x1 = 0.8932	0.0849	–
[2], x1 = 0.9488	0.0439	–

CCCCCCCCCCC [undecane] + CCOC(C)=O
Conditions	excess molar enthalpy [kcal/mol]	excess molar volume [m3/mol]
[1], x2 = 0.0632	–	3.65e-07
[1], x2 = 0.1076	–	5.64e-07
[1], x2 = 0.1921	–	8.99e-07
[1], x2 = 0.2759	–	1.151e-06
[1], x2 = 0.3521	–	1.328e-06
[1], x2 = 0.4213	–	1.429e-06
[1], x2 = 0.4771	–	1.49e-06
[1], x2 = 0.5319	–	1.504e-06
[1], x2 = 0.5859	–	1.504e-06
[1], x2 = 0.6355	–	1.461e-06
[1], x2 = 0.6817	–	1.385e-06
[1], x2 = 0.7223	–	1.311e-06
[1], x2 = 0.7656	–	1.17e-06
[1], x2 = 0.7889	–	1.147e-06
[1], x2 = 0.8628	–	8.46e-07
[1], x2 = 0.9234	–	5.39e-07
[1], x2 = 0.9664	–	2.63e-07
[2], x2 = 0.1003	0.149	–
[2], x2 = 0.1944	0.252	–
[2], x2 = 0.2921	0.343	–
[2], x2 = 0.3767	0.402	–
[2], x2 = 0.4501	0.433	–
[2], x2 = 0.509	0.443	–
[2], x2 = 0.5537	0.441	–
[2], x2 = 0.5965	0.436	–
[2], x2 = 0.6065	0.433	–
[2], x2 = 0.6498	0.413	–
[2], x2 = 0.6942	0.39	–
[2], x2 = 0.7366	0.364	–
[2], x2 = 0.7848	0.326	–
[2], x2 = 0.8361	0.272	–
[2], x2 = 0.8884	0.206	–
[2], x2 = 0.9357	0.141	–
[2], x2 = 0.9742	0.0596	–
